Reference: ChEMBL document CHEMBL1130939, “Alkyl side-chain derivatives of sordaricin as potent antifungal agents against yeast” (Bioorg Med Chem Lett, 1998)
Values after ≈ are worked out from the molar mass of the structure shown.

Test system: Saccharomyces cerevisiae
Test: Antifungal activity against Saccharomyces cerevisiae (strain YPH98)
Assay type: functional, organism-based

Question: `CC(C)COC[C@]12CC3C(C)CCC3[C@@]3(C#N)CC1C=C(C(C)C)[C@@]23C(=O)O` (stereo partly specified) was tested. Which IC50 did it give?
Answer: 30 ng/mL (≈ 77.8 nM)

Question: With `CCCCCCCCOC[C@]12CC3C(C)CCC3[C@@]3(C#N)CC1C=C(C(C)C)[C@@]23C(=O)O` (stereo partly specified) as the compound, how does the IC50 read?
Answer: 200 ng/mL (≈ 453 nM)

Question: How did the IC50 turn out when `COC[C@]12CC3C(C)CCC3[C@@]3(C=O)CC1C=C(C(C)C)[C@@]23C(=O)O` (stereo partly specified) was run?
Answer: 100 ng/mL (≈ 289 nM)

Question: Which IC50 does the source give for `CCCCCCOC[C@]12CC3C(C)CCC3[C@@]3(C=O)CC1C=C(C(C)C)[C@@]23C(=O)O` (stereo partly specified) here?
Answer: 15 ng/mL (≈ 36 nM)

Question: How did the IC50 turn out when `CCCCCCOC[C@]12CC3C(C)CCC3[C@@]3(C#N)CC1C=C(C(C)C)[C@@]23C(=O)O` (stereo partly specified) was run?
Answer: 0.3 ng/mL (≈ 0.725 nM)

Question: For `CCCOC[C@]12CC3C(C)CCC3[C@@]3(C#N)CC1C=C(C(C)C)[C@@]23C(=O)O` (stereo partly specified), which IC50 is on record?
Answer: 90 ng/mL (≈ 242 nM)

Question: For `CCCCCCCCOC[C@]12CC3C(C)CCC3[C@@]3(C=O)CC1C=C(C(C)C)[C@@]23C(=O)O` (stereo partly specified), which IC50 is on record?
Answer: 400 ng/mL (≈ 900 nM)

Question: How did the IC50 turn out when `CCCCOC[C@]12CC3C(C)CCC3[C@@]3(C#N)CC1C=C(C(C)C)[C@@]23C(=O)O` (stereo partly specified) was run?
Answer: 30 ng/mL (≈ 77.8 nM)

Question: `COC[C@]12CC3C(C)CCC3[C@@]3(C#N)CC1C=C(C(C)C)[C@@]23C(=O)O` (stereo partly specified) was tested. Which IC50 did it give?
Answer: 1000 ng/mL (≈ 2910 nM)

Question: `CCCCOC[C@]12CC3C(C)CCC3[C@@]3(C=O)CC1C=C(C(C)C)[C@@]23C(=O)O` (stereo partly specified) was tested. Which IC50 did it give?
Answer: 0.1 ng/mL (≈ 0.257 nM)

Question: How did the IC50 turn out when `CO[C@H]1[C@@H](O)[C@H](O)[C@H](OC[C@@]23C[C@@H]4[C@H](C)CC[C@H]4[C@@]4(C=O)CC2C=C(C(C)C)[C@@]34C(=O)O)O[C@@H]1C` [SORDARIN] was run?
Answer: 10000 ng/mL (≈ 20300 nM)

Question: `CCOC[C@]12CC3C(C)CCC3[C@@]3(C=O)CC1C=C(C(C)C)[C@@]23C(=O)O` (stereo partly specified) was tested. Which IC50 did it give?
Answer: 60 ng/mL (≈ 166 nM)

Question: For `CCCCCCCOC[C@]12CC3C(C)CCC3[C@@]3(C=O)CC1C=C(C(C)C)[C@@]23C(=O)O` (stereo partly specified), which IC50 is on record?
Answer: 300 ng/mL (≈ 697 nM)

Question: For `CCCCCCCCCOC[C@]12CC3C(C)CCC3[C@@]3(C=O)CC1C=C(C(C)C)[C@@]23C(=O)O` (stereo partly specified), which IC50 is on record?
Answer: 50000 ng/mL (≈ 109000 nM)

Question: How did the IC50 turn out when `CC(C)CCOC[C@]12CC3C(C)CCC3[C@@]3(C=O)CC1C=C(C(C)C)[C@@]23C(=O)O` (stereo partly specified) was run?
Answer: 0.01 ng/mL (≈ 0.0248 nM)

Question: With `CC(C)CCOC[C@]12CC3C(C)CCC3[C@@]3(C#N)CC1C=C(C(C)C)[C@@]23C(=O)O` (stereo partly specified) as the compound, how does the IC50 read?
Answer: 0.01 ng/mL (≈ 0.025 nM)

Question: Which IC50 does the source give for `CCCOC[C@]12CC3C(C)CCC3[C@@]3(C=O)CC1C=C(C(C)C)[C@@]23C(=O)O` (stereo partly specified) here?
Answer: 60 ng/mL (≈ 160 nM)

Question: How did the IC50 turn out when `CCCCCOC[C@]12CC3C(C)CCC3[C@@]3(C=O)CC1C=C(C(C)C)[C@@]23C(=O)O` (stereo partly specified) was run?
Answer: 0.01 ng/mL (≈ 0.0248 nM)

Question: `COC1C(C)OC(OCC23CC4C(C)CCC4[C@@]4(C#N)C[C@@H]2C=C(C(C)C)[C@@]34C(=O)O)C(O)C1O` (stereo partly specified) was tested. Which IC50 did it give?
Answer: 2000 ng/mL (≈ 4080 nM)

Question: For `CCOC[C@]12CC3C(C)CCC3[C@@]3(C#N)CC1C=C(C(C)C)[C@@]23C(=O)O` (stereo partly specified), which IC50 is on record?
Answer: 500 ng/mL (≈ 1400 nM)

Question: `CC(C)COC[C@]12CC3C(C)CCC3[C@@]3(C=O)CC1C=C(C(C)C)[C@@]23C(=O)O` (stereo partly specified) was tested. Which IC50 did it give?
Answer: 0.1 ng/mL (≈ 0.257 nM)

Question: For `CCCCCOC[C@]12CC3C(C)CCC3[C@@]3(C#N)CC1C=C(C(C)C)[C@@]23C(=O)O` (stereo partly specified), which IC50 is on record?
Answer: 0.01 ng/mL (≈ 0.025 nM)

Question: Which IC50 does the source give for `CC(C)C1=CC2C[C@]3(C=O)C4CCC(C)C4C[C@]2(CO)[C@]13C(=O)O` (stereo partly specified) [SORDARICIN] here?
Answer: > 250000 ng/mL

Question: Which IC50 does the source give for `CCCCCCCCCOC[C@]12CC3C(C)CCC3[C@@]3(C#N)CC1C=C(C(C)C)[C@@]23C(=O)O` (stereo partly specified) here?
Answer: 1000 ng/mL (≈ 2190 nM)

Question: With `CC(C)C1=CC2C[C@]3(C#N)C4CCC(C)C4C[C@]2(CO)[C@]13C(=O)O` (stereo partly specified) as the compound, how does the IC50 read?
Answer: 20000 ng/mL (≈ 60700 nM)

Question: Which IC50 does the source give for `CCCCCCCOC[C@]12CC3C(C)CCC3[C@@]3(C#N)CC1C=C(C(C)C)[C@@]23C(=O)O` (stereo partly specified) here?
Answer: 100 ng/mL (≈ 234 nM)
